Laboratory results published in US10815233B2, “Dihydroindolizinone derivative” (ONO PHARMACEUTICAL CO., LTD., priority 2014, dated 2020).
Marks after values point to notes of the source that are not given here.

How the values were obtained:
[1] = Pharmacokinetic (PK) tests in rats; type: in vivo; conditions: for concentration at 8 h: male, Crj:CD(SD), oral, read-out: Plasma concentration C8h; for concentration at 8 h / AUC: rat, plasma; for AUC: po, fasted male Crj:CD(SD) rats; for APTT × 2 maintaining time: 1 mg/kg orally, period when plasma concentration exceeded APTT×2; for C8h/APTT × 2: C8h divided by APTT×2
Protocol: The compound of the present invention was administered to fasted male Crj:CD(SD) rats by intravenous injection as a single intravenous dose of 0.1 mg/kg (vehicle: 20% HP-β-CD solution) and by forced oral dosage as a dose of 1 mg/kg per os (vehicle: 0.5% methylcellulose solution). Blood samples were collected from cervical vein into heparinized syringes at 0.08, 0.25, 0.5, 1, 3 or 7 hours after administration by intravenous injection or 0.08, 0.25, 0.5, 1, 2, 4, 6, 8 or 24 hours after oral administration. Plasma was obtained by centrifugation, and plasma was stored at −20° C. until measurement of plasma concentration.
In order to measure the plasma concentration of the compound of the present invention, the plasma sample was subjected to deproteinization by using acetonitrile, was filtrated by using a filter, and thereafter, was diluted with purified water, and then was analyzed by LC/MS/MS. A column for analysis (Shim-pack XR-ODSII, 2.0 mm×75 mm, 2.2 μm) and mobile phases (0.1% formic acid in water and 0.1% formic acid in acetonitrile, flow rate: 0.5 mL/min) were used. The system was used by detection of cations in the Multiple Reaction Monitoring (MRM) mode.
The area under the blood concentration versus time curve (AUC) and the bioavailability (BA) of the compound of the present invention were calculated. In addition, as indices of the maintaining time of the anticoagulation activity in the case of oral administration, AUC/APTT×2, which is obtained by dividing AUC by APTT×2, and C8h/APTT×2, which is obtained by dividing C8h (the plasma concentration at 8 hours after administration) by APTT×2, were calculated.
In addition, the period of time when the compound concentration in plasma of the compound of the present invention exceeded APTT×2 (the APTT×2 maintaining time) was calculated from the change in the compound concentration in plasma in the case when the compound of the present invention was orally administered at a dose of 1 mg/kg. The longer the APTT×2 maintaining time is, the longer the period of time is when the anticoagulation activity is maintained after oral administration.

standard human plasma = assay: Activated partial thromboplastin time (APTT) in standard human plasma; type: biochemical; conditions: concentration required for doubling the coagulation time vs vehicle (1% DMSO)
Protocol: Activated partial thromboplastin time (APTT) and prothrombin time (PT) were measured by using a fully automatic device for measuring blood coagulation (CA-1500, Sysmex Corporation). On APTT or PT measurement, standard human plasma for the blood coagulation tests (Siemens Healthcare Diagnostics GmbH) was mixed with a diluted solution of the compound of the present invention, and thereafter, APTT reagent (Siemens Healthcare Diagnostics GmbH) and 0.02 M of calcium chloride or PT reagent (Siemens Healthcare Diagnostics GmbH) were automatically added to the mixture in order to initiate clot formation. The anticoagulation activity (APTT×2 or PT×2) of the compound of the present invention was expressed as a concentration required for doubling the coagulation time in the vehicle (1% DMSO) group. APTT×2 or PT×2 was determined by plotting the concentration of the compound of the present invention against a twofold increase in the coagulation time.

[2] = target: T1, human blood coagulation factor XIa (Homo sapiens, UniProt P03951); assay: Inhibitory activity on human blood coagulation factor XIa (chromogenic substrate S-2366); type: biochemical; conditions: chromogenic substrate S-2366, 37° C.; read-out: FXIa inhibitory activity IC50
T1 construct: human blood coagulation factor XIa (Haematologic Technologies Inc.); purchased Haematologic Technologies Inc
T1 sequence (P03951 388-625 limits assumed): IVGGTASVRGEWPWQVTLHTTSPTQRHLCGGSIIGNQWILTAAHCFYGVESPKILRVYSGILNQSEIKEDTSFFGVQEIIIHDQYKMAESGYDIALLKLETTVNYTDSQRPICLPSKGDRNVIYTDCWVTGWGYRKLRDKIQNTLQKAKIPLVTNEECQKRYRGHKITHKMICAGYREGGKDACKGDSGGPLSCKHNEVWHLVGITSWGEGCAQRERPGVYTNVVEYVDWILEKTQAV
T1 sequence (P03951 19-387 partner limits assumed): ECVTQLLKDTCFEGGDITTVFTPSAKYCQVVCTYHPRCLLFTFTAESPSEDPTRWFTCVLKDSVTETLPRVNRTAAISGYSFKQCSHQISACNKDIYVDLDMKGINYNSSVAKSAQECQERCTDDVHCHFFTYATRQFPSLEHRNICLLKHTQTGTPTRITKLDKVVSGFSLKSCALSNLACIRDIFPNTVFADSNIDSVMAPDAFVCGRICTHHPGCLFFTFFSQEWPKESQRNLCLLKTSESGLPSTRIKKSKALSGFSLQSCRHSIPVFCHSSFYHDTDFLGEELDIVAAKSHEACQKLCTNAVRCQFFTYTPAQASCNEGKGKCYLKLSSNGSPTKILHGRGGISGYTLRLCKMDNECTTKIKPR
Protocol: Inhibitory activities of the compound of the present invention on human blood coagulation factor XIa, factor VIIa, factor IXa, factor Xa, factor XIIa, plasma kallikrein and thrombin were evaluated. A chromogenic substrate solution was added to each of enzyme solutions, the absorbance at 405 nm was measured continuously at 37° C. for 5 minutes at intervals of 15 seconds, and the decomposition rate of each of substrates (mOD/min) was calculated. The half maximal (50%) inhibitory concentration (IC50) of the compound of the present invention on each of the enzymes was calculated by linear regression by using least-squares method from the concentration of the compound of the present invention which was converted in terms of natural logarithm and the rate of enzyme inhibition calculated according to the following equation.
The rate of enzyme inhibition (%) of the compound of the present invention was calculated by using the following equation: Rate of enzyme inhibition (%)=100×{(Cont(e)−BL(e))−(Comp(e)−BL(e))/(Cont(e)−BL(e))}
Cont (e): Decomposition rate of substrate (mOD/min) when enzyme solution and substrate solution were added to physiological saline containing 5% dimethyl sulfoxide
Comp (e): Decomposition rate of substrate (mOD/min) when enzyme solution and substrate solution were added to physiological saline containing 5% dimethyl sulfoxide and the compound of the present invention
The inhibitory activity on human blood coagulation factor XIa (Haematologic Technologies Inc.) was measured by using the enzyme solution adjusted to 0.1 U/mL by a buffer solution containing 300 mM of NaCl, 10 mM of KCl, 2 mg/mL of PEG 6000 and 100 mM of HEPES-NaOH (pH 7.4) as well as S-2366 (pyroglu-Pro-Arg-pNA, CHROMOGENIX) adjusted to 1 mM by distilled water.

[3] = rats, 1 mg/kg per os, 8 hours after administration

In the case of `N#Cc1cn(-c2ccc(Cl)cc2-c2cc3n(c(=O)c2)[C@H](c2nc(F)c(-c4ccc(N)cc4)[nH]2)CC3)nn1` [Example 4 (10), 1-(2-{(3S)-3-[5-(4-aminophenyl)-4-fluoro-1H-imidazol-2-yl]-5-oxo-1,2,3,5-tetrahydro-7-indolizinyl}-4-chlorophenyl)-1H-1,2,3-triazole-4-carbonitrile], the concentration at 8 h [1, 3] is reported as 2500 nM, the AUC ([1]; 1 mg/kg per os) is reported as 45 µM·h and the “APTT × 2 maintaining time” value ([1]; rats) is reported as over 8 h. The “C8h/APTT × 2” value ([1]; rats, 1 mg/kg per os) was 1.4, the “APTT ×” value (standard human plasma) was 1.8 µM and the IC50 [2] was 5.4 nM.

In the case of `Nc1ccc(-c2[nH]c([C@@H]3CCc4cc(-c5cc(Cl)ccc5-n5cnnn5)cc(=O)n43)nc2F)c(F)n1` [Example 1 (6), (3S)-3-[5-(6-Amino-2-Fluoro-3-Pyridinyl)-4-Fluoro-1H-Imidazol-2-Yl]-7-[5-Chloro-2-(1H-Tetrazol-1-Yl)Phenyl]-2,3-Dihydro-5(1H)-Indolizinone], the concentration at 8 h [1, 3] is reported as 880 nM, the AUC ([1]; 1 mg/kg per os) is reported as 33 µM·h and the “APTT × 2 maintaining time” value ([1]; rats) is reported as over 8 h. For the same compound, the “C8h/APTT × 2” value ([1]; rats, 1 mg/kg per os) was 1.1, the “APTT ×” value (standard human plasma) was 0.80 µM and the IC50 [2] was 1.7 nM.

With `Nc1ccc(-c2cnc([C@@H]3CCc4cc(-c5cc(Cl)ccc5-n5cnnn5)cc(=O)n43)[nH]2)c(F)n1` [Comparative Example 1 (1), (3S)-3-[5-(6-amino-2-fluoro-3-pyridinyl)-1H-imidazol-2-yl]-7-[5-chloro-2-(1H-tetrazol-1-yl)phenyl]-2,3-dihydro-5(1H)-indolizinone] the concentration at 8 h [1, 3] was 170 nM, the AUC ([1]; 1 mg/kg per os) was 4.7 µM·h and the “APTT × 2 maintaining time” value ([1]; rats) was 0* h. For the same compound, the “C8h/APTT × 2” value ([1]; rats, 1 mg/kg per os) was 0.15 and the “APTT ×” value (standard human plasma) was 1.2 µM.

For `Nc1ccc(-c2nc(Cl)c([C@@H]3CCc4cc(-c5cc(Cl)ccc5-n5cnnn5)cc(=O)n43)[nH]2)c(F)n1` [Comparative Example 2 (3), (3S)-3-[2-(6-amino-2-fluoro-3-pyridinyl)-4-chloro-1H-imidazol-5-yl]-7-[5-chloro-2-(1H-tetrazol-1-yl)phenyl]-2,3-dihydro-5(1H)-indolizinone], the concentration at 8 h [1, 3] was 1100 nM, the AUC ([1]; 1 mg/kg per os) was 23 µM·h and the “APTT × 2 maintaining time” value ([1]; rats) was under 2 h. The “C8h/APTT × 2” value ([1]; rats, 1 mg/kg per os) was 0.52, the “APTT ×” value (standard human plasma) was 2.1 µM and the IC50 [2] was 4.4 nM.

In the case of `COC(=O)Nc1ccc(-c2nc(Cl)c([C@@H]3CCc4nc(-c5cc(Cl)ccc5-n5cnnn5)cc(=O)n43)[nH]2)cc1` [Comparative Example 3 (1), methyl[4-(4-chloro-5-{(6S)-2-[5-chloro-2-(1H-tetrazol-1-yl)phenyl]-4-oxo-4,6,7,8-tetrahydropyrrolo[1,2-a]pyrimidin-6-yl}-1H-imidazol-2-yl)phenyl]carbamate], the concentration at 8 h [1, 3] is reported as 180 nM, the AUC ([1]; 1 mg/kg per os) is reported as 4.2 µM·h and the “APTT × 2 maintaining time” value ([1]; rats) is reported as under 2 h. For the same compound, the “C8h/APTT × 2” value ([1]; rats, 1 mg/kg per os) was 0.29, the “APTT ×” value (standard human plasma) was 0.64 µM and the IC50 [2] was 1.6 nM.

For `Nc1ccc(-c2nc(F)c([C@@H]3CCc4cc(-c5cc(Cl)ccc5-n5cnnn5)cc(=O)n43)[nH]2)cn1` [Comparative Example 2 (5), (3S)-3-[2-(6-Amino-3-Pyridinyl)-4-Fluoro-1H-Imidazol-5-Yl]-7-[5-Chloro-2-(1H-Tetrazol-1-Yl)Phenyl]-2,3-Dihydro-5(1H)-Indolizinone], the concentration at 8 h [1, 3] was 73 nM, the AUC ([1]; 1 mg/kg per os) was 1.6 µM·h and the “APTT × 2 maintaining time” value ([1]; rats) was under 2 h. The “C8h/APTT × 2” value ([1]; rats, 1 mg/kg per os) was 0.34, the “APTT ×” value (standard human plasma) was 0.21 µM and the IC50 [2] was 1.6 nM.

For `Nc1ccc(-c2ncc([C@@H]3CCc4cc(-c5cc(Cl)ccc5-n5cnnn5)cc(=O)n43)[nH]2)c(F)n1` [Comparative Example 2 (1), (3S)-3-[2-(6-amino-2-fluoro-3-pyridinyl)-1H-imidazol-5-yl]-7-[5-chloro-2-(1H-tetrazol-1-yl)phenyl]-2,3-dihydro-5(1H)-indolizinone], the AUC ([1]; 1 mg/kg per os) was 0.056 µM·h, the “APTT × 2 maintaining time” value ([1]; rats) was 0* h and the “Plasma concentration C8h” value [1, 3] was “BLQ*”. The “APTT ×” value (standard human plasma) was 4.0 µM and the IC50 [2] was 19 nM.

In the case of `Nc1ccc(-c2[nH]c([C@@H]3CCc4cc(-c5cc(Cl)ccc5-n5cnnn5)cc(=O)n43)nc2F)cn1` [Comparative Example 1 (3), (3S)-3-[5-(6-amino-3-pyridinyl)-4-fluoro-1H-imidazol-2-yl]-7-[5-chloro-2-(1H-tetrazol-1-yl)phenyl]-2,3-dihydro-5(1H)-indolizinone], the concentration at 8 h [1, 3] is reported as 81 nM, the AUC ([1]; 1 mg/kg per os) is reported as 1.7 µM·h and the “APTT × 2 maintaining time” value ([1]; rats) is reported as under 1 h. The “C8h/APTT × 2” value ([1]; rats, 1 mg/kg per os) was 0.15, the “APTT ×” value (standard human plasma) was 0.55 µM and the IC50 [2] was 1.4 nM.

For `Nc1ccc(-c2[nH]c([C@@H]3CCc4cc(-c5cc(Cl)ccc5-n5cnnn5)cc(=O)n43)nc2Cl)c(F)n1` [Comparative Example 1 (2), (3S)-3-[5-(6-amino-2-fluoro-3-pyridinyl)-4-chloro-1H-imidazol-2-yl]-7-[5-chloro-2-(1H-tetrazol-1-yl)phenyl]-2,3-dihydro-5(1H)-indolizinone], the concentration at 8 h [1, 3] was 26 nM, the AUC ([1]; 1 mg/kg per os) was 0.69 µM·h and the “APTT × 2 maintaining time” value ([1]; rats) was 0* h. For the same compound, the “C8h/APTT × 2” value ([1]; rats, 1 mg/kg per os) was 0.014, the “APTT ×” value (standard human plasma) was 1.8 µM and the IC50 [2] was 4.8 nM.

In the case of `N#Cc1cn(-c2ccc(Cl)cc2-c2cc3n(c(=O)c2)[C@H](c2nc(Cl)c(-c4ccc(N)nc4)[nH]2)CC3)nn1` [Comparative Example 4, 1-(2-{(3S)-3-[5-(6-amino-3-pyridinyl)-4-chloro-1H-imidazol-2-yl]-5-oxo-1,2,3,5-tetrahydro-7-indolizinyl}-4-chlorophenyl)-1H-1,2,3-triazole-4-carbonitrile], the concentration at 8 h [1, 3] is reported as 350 nM, the AUC ([1]; 1 mg/kg per os) is reported as 8.4 µM·h and the “APTT × 2 maintaining time” value ([1]; rats) is reported as 0* h. For the same compound, the “C8h/APTT × 2” value ([1]; rats, 1 mg/kg per os) was 0.18, the “APTT ×” value (standard human plasma) was 2.0 µM and the IC50 [2] was 2.7 nM.
